Earlier results, collected in patent US20090304794A1, “CONTROLLED RELEASE FORMULATIONS OF PRAMIPEXOLE” (Supernus Pharmaceuticals, Inc., priority 2008, published 2009).
Read-outs that look alike come from different tables or passages of the source.

CCCN[C@H]1CCc2nc(N)sc2C1 [pramipexole]
terminal elimination half-life (elderly volunteers): about 12 hours | lower clearance rate in females than males (females versus males): 30% | terminal elimination half-life (healthy volunteers): about 8 hours | absolute bioavailability (BA) (in vivo): greater than 90%
